Data: patent US20230146795A1, “ENHANCEMENT OF ANTI-TUMOR ACTIVITY OF SHP2 INHIBITOR PYRIMIDINONE IN COMBINATION WITH NOVEL CANCER MEDICINES IN CANCERS” (TAIHO PHARMACEUTICAL CO., LTD., priority 2020, published 2023)

Columns and labels:
Type in all cases: cell-based
[1] = system: NCI-H23; assay: Anti-proliferation assay (CellTiter-Glo 2.0), combination index, NCI-H23
Method: (§1) Cell lines were obtained from ATCC or Health Science Research Resources Bank.
Each cell lines were collected by ordinary method, then suspended in indicated medium containing 10% fetal bovine serum in table 3. The number of cells seeded per well was set to 500 cells/20 μL. […] The concentration of each anti-cancer reagents set to 8 concentrations including 0 nM. After adding the medicine to the cells, the cells were further incubated at 37° C. for 3 days under 5% CO2. Cell survival rates were calculated by adding 20 μL of CellTiter-Glo(registered trademark) 2. 0 (Promega) solution to each well, incubating the cells at room temperature for 10 minutes, and then measuring the chemiluminescence intensity of each well using a plate reader (ARVO).
(§2) A combination index (CI) value at each combined concentration of the medicines was determined.

[2] = system: NCI-H358; assay: Anti-proliferation assay (CellTiter-Glo 2.0), combination index, NCI-H358; details: molar ratio 1:27
In short: (§3)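 Cells were seeded at 500 cells/well in medium with 10% FBS and exposed to agents at 8 concentrations including 0 nM, for 3 days at 37° C under 5% CO2. Survival was read by CellTiter-Glo 2.0 luminescence, and combination index was determined at each combined concentration.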

[3] = system: MV-4-11; assay: Anti-proliferation assay (CellTiter-Glo 2.0), combination index, MV-4-11
Method: as §1
(§4) 384 well culture plate (781086, Greiner Bio-One International) was used for cell survival rate measurement assay. Each cell lines were collected by ordinary method, then suspended in indicated medium containing 10% fetal bovine serum in table 3. The number of cells seeded per well was set to 500 cells/20 μL. After incubation at 37° C. for 24 hours under 5% CO2, Compound 1 and additional compound having an antitumor effect or a vehicle (DMSO) was added to each well by using D300e Digital Dispenser (Tecan). The concentration of Compound 1 was set to 10 concentrations. The concentration of each anti-cancer reagents set to 8 concentrations including 0 nM. After adding the medicine to the cells, the cells were further incubated at 37° C. for 3 days under 5% CO2. Cell survival rates were calculated by adding 20 μL of CellTiter-Glo(registered trademark) 2. 0 (Promega) solution to each well, incubating the cells at room temperature for 10 minutes, and then measuring the chemiluminescence intensity of each well using a plate reader (ARVO).
as §2

[4] = system: RMG-I; assay: Anti-proliferation assay (CellTiter-Glo 2.0), combination index, RMG-I
Method: as §1, §4, §2

[5] = system: RT4; assay: Anti-proliferation assay (CellTiter-Glo 2.0), combination index, RT4
In short: as §3

[6] = Compound 1 1110 + combination drug 3330 nmol/L (1:3)
[7] = Compound 1 3330 + combination drug 10000 nmol/L (1:3)
[8] = Compound 1 41.2 nmol/L + Palbociclib 1110 nmol/L
[9] = Compound 1 123 nmol/L + Palbociclib 3330 nmol/L
[10] = Compound 1 370 nmol/L + Palbociclib 10000 nmol/L
[11] = Compound 1 1.52 nmol/L + Palbociclib 123 nmol/L, molar ratio 1:81
[12] = Compound 1 13.7 nmol/L + Palbociclib 1110 nmol/L, molar ratio 1:81
[13] = Compound 1 41.2 nmol/L + Palbociclib 3330 nmol/L, molar ratio 1:81
[14] = Compound 1 123 nmol/L + Palbociclib 10000 nmol/L, molar ratio 1:81
[15] = Compound 1 4.57 + combination drug 1.37 nmol/L (1:0.3)
[16] = Compound 1 13.7 + combination drug 4.12 nmol/L (1:0.3)
[17] = Compound 1 41.2 + combination drug 12.3 nmol/L (1:0.3)
[18] = Compound 1 123 + combination drug 37.0 nmol/L (1:0.3)
[19] = Compound 1 370 + combination drug 111 nmol/L (1:0.3)
[20] = Compound 1 123 + combination drug 333 nmol/L (1:2.7)
[21] = Compound 1 370 + combination drug 1000 nmol/L (1:2.7)
[22] = Compound 1 13.7 + combination drug 13.7 nmol/L (1:1)
[23] = Compound 1 41.2 + combination drug 41.2 nmol/L (1:1)
[24] = Compound 1 123 + combination drug 123 nmol/L (1:1)
[25] = Compound 1 123 + combination drug 1110 nmol/L (1:9)
[26] = Compound 1 370 + combination drug 3330 nmol/L (1:9)
[27] = Compound 1 1110 + combination drug 10000 nmol/L (1:9)
[28] = Compound 1 13.7 + combination drug 370 nmol/L (1:27)
[29] = Compound 1 41.2 + combination drug 1110 nmol/L (1:27)
[30] = Compound 1 123 + combination drug 3330 nmol/L (1:27)
[31] = Compound 1 370 + combination drug 10000 nmol/L (1:27)

C[C@@H](Oc1cc(-c2cnn(C3CCNCC3)c2)cnc1N)c1c(Cl)ccc(F)c1Cl [Crizotinib]
CI [1, 6]: 0.939
Fa [1, 6]: 0.5445
CI [1, 7]: 0.765
Fa [1, 7]: 0.8672

CC(=O)c1c(C)c2cnc(Nc3ccc(N4CCNCC4)cn3)nc2n(C2CCCC2)c1=O [Palbociclib]
CI [2, 8]: 0.774
Fa [2, 8]: 0.1141
CI [2, 9]: 0.695
Fa [2, 9]: 0.2564
CI [2, 10]: 0.833
Fa [2, 10]: 0.4277
CI [3, 11]: 0.827
Fa [3, 11]: 0.1698
CI [3, 12]: 0.520
Fa [3, 12]: 0.6523
CI [3, 13]: 0.699
Fa [3, 13]: 0.7944
CI [3, 14]: 0.565
Fa [3, 14]: 0.9297
Description ([3]; combination effect, Compound 1 + Palbociclib, molar ratio 1:81): Synergy (0.3-0.7)
CI [4, 12]: 0.411
Fa [4, 12]: 0.3192
CI [4, 13]: 0.271
Fa [4, 13]: 0.4189
CI [4, 14]: 0.225
Fa [4, 14]: 0.5120

CCc1nc(C(N)=O)c(Nc2ccc(N3CCC(N4CCN(C)CC4)CC3)c(OC)c2)nc1NC1CCOCC1 [Gilteritinib]
CI [3, 15]: 0.817
Fa [3, 15]: 0.5753
CI [3, 16]: 0.235
Fa [3, 16]: 0.8986
CI [3, 17]: 0.189
Fa [3, 17]: 0.9647
CI [3, 18]: 0.354
Fa [3, 18]: 0.9763
CI [3, 19]: 0.862
Fa [3, 19]: 0.9802
CI [1, 20]: 0.540
Fa [1, 20]: 0.3005
CI [1, 21]: 0.666
Fa [1, 21]: 0.6542
Description (combinatory effect by CI) ([1]; Compound 1:combination drug molar ratio 1:2.7): Synergy (0.3-0.7)

CC1(C)CCC(CN2CCN(c3ccc(C(=O)NS(=O)(=O)c4ccc(NCC5CCOCC5)c([N+](=O)[O-])c4)c(Oc4cnc5[nH]ccc5c4)c3)CC2)=C(c2ccc(Cl)cc2)C1 [Venetoclax]
CI [3, 22]: 0.424
Fa [3, 22]: 0.7436
CI [3, 23]: 0.080
Fa [3, 23]: 0.9696
CI [3, 24]: 0.007
Fa [3, 24]: 0.9987
CI [4, 25]: 0.687
Fa [4, 25]: 0.4133
CI [4, 26]: 0.601
Fa [4, 26]: 0.5921
CI [4, 27]: 0.668
Fa [4, 27]: 0.9240
Description (combinatory effect by CI) ([4]; Compound 1:combination drug molar ratio 1:9): Synergy (0.3-0.7)
CI [5, 28]: 0.479
Fa [5, 28]: 0.1751
CI [5, 29]: 0.497
Fa [5, 29]: 0.3605
CI [5, 30]: 0.888
Fa [5, 30]: 0.5099
CI [5, 31]: 0.888
Fa [5, 31]: 0.8781
Description (combinatory effect by CI) ([5]; Compound 1:combination drug molar ratio 1:27): Synergy (0.3-0.7)
